# Biological target: T1, cannabinoid CB1 (Homo sapiens, UniProt P21554)
# T1 construct: purchased
# Experiment: Competition binding assay for cannabinoid CB1 affinity (3H-CP55,940 displacement)
# Experimental: Competition binding assays for cannabinoid CB1 and CB2 affinity were performed by incubating commercially purchased membranes prepared from cells expressing each receptor subtype (8 μg pro) with 0.5 nM ^3H-CP55,940, a non-selective cannabinoid agonist, along with concentrations of drug ranging from 0.0001-3 μM in Buffer A (5 mM MgCl2, 2.5 mM EDTA and […] BSA). Non-specific binding was defined in the presence of 10 μM CP55,940. For saturation studies, concentrations of ^3H-CP55,940 ranging from 0.1-5 nM were incubated with membranes in the presence and absence of 10 μM CP55,940. Assays were terminated after incubation for 1½ hours by rapid filtration onto 0.3% polyethylenamine treated GF/C filterplates using a BRANDEL cell harvester. […]
# The dissociation constant (Kd) of ^3H-CP55,940 at the CB1 and CB2 receptor were determined by plotting specific binding at each concentration of radioligand, and analysis by non-linear regression. For competition studies, the concentration of each drug that inhibited 50 percent of ^3H-CP55,940 binding (IC50) was determined by non-linear regression analysis of the radioligand displacement curves. Affinity constants (Ki) were calculated using the equation derived by Cheng and Prusoff (1973), defined as: IC50/1+[conc. ligand/Kd].
# T1 sequence (P21554 whole entry): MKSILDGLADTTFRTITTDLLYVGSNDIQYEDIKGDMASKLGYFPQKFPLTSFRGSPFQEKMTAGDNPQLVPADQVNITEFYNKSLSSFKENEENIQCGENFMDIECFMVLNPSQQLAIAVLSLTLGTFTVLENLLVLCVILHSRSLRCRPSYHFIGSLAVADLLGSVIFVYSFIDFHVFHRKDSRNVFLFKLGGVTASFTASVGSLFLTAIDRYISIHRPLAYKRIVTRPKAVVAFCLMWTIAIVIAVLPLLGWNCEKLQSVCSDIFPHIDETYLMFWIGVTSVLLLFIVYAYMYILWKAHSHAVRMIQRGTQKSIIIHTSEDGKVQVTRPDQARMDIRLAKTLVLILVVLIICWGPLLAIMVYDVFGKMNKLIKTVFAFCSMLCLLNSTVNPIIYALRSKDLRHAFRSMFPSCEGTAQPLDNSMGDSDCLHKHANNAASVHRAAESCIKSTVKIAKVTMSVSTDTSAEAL
smiles,measurement,value
O=C(NC1CCCC1)C1CCC(c2ccc(Cl)cc2)=C(c2ccc(Cl)cc2)C1 (stereo not shown) [Compound 180],Ki,1 to 10 nM

# Reference: patent US7897601B2, “Cannabinoid receptor modulators” (Intervet, Inc., priority 2006, dated 2011)
